Consider three compounds from patent publication US20130165396A1, “Apple Skin Extracts for Treating Cardiovascular Disease” (NATIONAL RESEARCH COUNCIL OF CANADA, priority 2010, published 2013).

Type in all cases: biochemical
Experiment [1] has as its system LDL isolated from human plasma. Put plainly: TBARS assay, AAPH-induced LDL oxidation. How it is done: (§1) To remove the inherent antioxidants, purchased LDL was dialyzed using Fisherbrand cellulose dialysis tubing (type T3 membrane, Thermo Fisher Scientific Inc., Ottawa, ON, Canada) against PBS containing 0.138 M NaCl and 0.0027 M KCl (pH 7.4, at 25° C.) at 4° C. for 24 hours. The buffer was changed every six hours. The dialyzed LDL was immediately used or stored at −80° C. in the dark under nitrogen and used within two to three weeks. Protein content of the dialyzed LDL was measured by the Lowry's method (Lowry et al., J. Biol. Chem., 1951, 193: […]) using bovine serum albumin as the standard.
(§2) Two oxidation induction methods were used: copper sulfate and 2,2′-azobis(2-methylpropionamidine)dihydrochloride (AAPH). For both induction systems, 100 μg/mL of final LDL protein concentration was used. LDL was oxidized at the presence of 10 μM final concentration of Cu^2+and 5 mM final concentration of AAPH separately at 37° C. for 4 h in the dark. […] Oxidation was terminated by adding a 1:1 mixture of 1 mM solution of ethylenediaminetetraacetic acid (EDTA) and 1 mM solution of butylated hydroxytoluene (BHT).
(§3) Two main constituents of TAE and oleanolic acid, which is an isomer of ursolic acid, were also used to investigate the concentration-responsiveness. The same concentrations of Cu^2+ and AAPH were used and the oxidation was terminated by a 1:1 mixture of EDTA and BHT as explained earlier under this section.
(§4) TBARS were measured according to the method of Xu et al., J. Food Sci., 2007, 72: S522-S527 with slight modifications. […] The mixture was incubated at 95° C. for 30 min to develop a pink chromogen. After cooling to room temperature tubes were centrifuged at 1500 g for 15 min and the fluorescence was measured using the FLUOstar OPTIMA plate reader (BMG Labtech Inc. Canada). Excitation and emission wavelengths used were 532 and 590 nm, respectively. TBARS activity was expressed as the percent inhibition (Equation 1) of LDL oxidation with comparison to the positive control, where F is fluorescence:
(§5) Percent inhibition (%)=100(Fpositive control−Fsample)/(Fpositive control) (1)

For experiment [2], the system named is LDL isolated from human plasma. Briefly: TBARS assay, Cu2+-induced LDL oxidation. How it is done:
as §1, §2, §3, §4, §5

The subject of experiment [3] is LDL isolated from human plasma. Put plainly: In vitro LDL oxidation inhibition, statements covering both induction systems or both product types. To be noted: for Pro-oxidant effect (statement): 5-50 mg L^−1. How it is done:
as §2, §3
TBARS were measured according to the method of Xu et al., J. Food Sci., 2007, 72: S522-S527 with slight modifications. […]. The mixture was incubated at 95° C. for 30 min to develop a pink chromogen. After cooling to room temperature tubes were centrifuged at 1500 g for 15 min and the fluorescence was measured using the FLUOstar OPTIMA plate reader (BMG Labtech Inc. Canada). Excitation and emission wavelengths used were 532 and 590 nm, respectively. TBARS activity was expressed as the percent inhibition (Equation 1) of LDL oxidation with comparison to the positive control, where F is fluorescence:
The formation of hydroperoxides was measured by the lipid compatible formulation of the Peroxoquant™ quantitative peroxide assay kit. LDL oxidation was induced by Cu^2+ or AAPH and incubated for 4 hrs at 37° C. in the dark. Hydroperoxides were measured following the manufacturer's instructions. Absorbance was measured at 595 nm using FLUOstar OPTIMA plate reader (BMG Labtech, Durham, N.C., USA). Activity of hydroperoxides was expressed as the percent inhibition of LDL with comparison to the positive control (Equation 1).

The mark [4] stands for this setting: 50 mg L^−1, comparison of constituent compounds and metabolites (Table 4).

Marks after values point to notes of the source that are not given here.

Take `O=C(O)[C@H]1O[C@@H](Oc2c(-c3ccc(O)c(O)c3)oc3cc(O)cc(O)c3c2=O)[C@H](O)[C@@H](O)[C@@H]1O` [Quercetin-3-glucuronic acid]: the “Percent inhibition of secondary LDL oxidation products, AAPH induction” value (from here on “Percent inhibition … AAPH induction”) is recorded as 11.79 ± 2.10^f % in experiment [1] (0.0005 mg L^−1); 26.29 ± 1.68^d % in experiment [1] (0.001 mg L^−1); 24.12 ± 1.53^de % in experiment [1] (0.005 mg L^−1); −1.96 ± 3.37^g % in experiment [1] (0.01 mg L^−1); 4.32 ± 1.18^fg % in experiment [1] (0.5 mg L^−1); 13.31 ± 1.79^ef % in experiment [1] (1 mg L^−1). Moreover, the “Percent inhibition … AAPH induction” value is reported as 55.17 ± 0.33^c % in experiment [1] (5 mg L^−1); 80.74 ± 3.27^a % in experiment [1] (10 mg L^−1); 66.69 ± 2.41^b % in experiment [1] (25 mg L^−1); 72.00 ± 0.97^ab % in experiment [1] (50 mg L^−1); 74.24 ± 1.36^d % in experiment [1] (setting [4]). Further, the “Percent inhibition of secondary LDL oxidation products, Cu induction” value (from here on “Percent inhibition … Cu induction”) in experiment [2] (0.0005 mg L^−1) is listed as 10.73 ± 1.68^e %; in experiment [2] (0.001 mg L^−1), 23.06 ± 2.97^d %; in experiment [2] (0.005 mg L^−1) it was 15.68 ± 2.22^e %; in experiment [2] (0.01 mg L^−1) it was 14.85 ± 0.80^e %; in experiment [2] (0.5 mg L^−1) it was 71.09 ± 1.34^c %; in experiment [2] (1 mg L^−1), 88.59 ± 0.21^b %. In addition, the “Percent inhibition … Cu induction” value is given as 90.37 ± 2.31^b % in experiment [2] (5 mg L^−1); 94.2 ± 31.32^ab % in experiment [2] (10 mg L^−1); 95.24 ± 0.71^ab % in experiment [2] (25 mg L^−1); 98.64 ± 0.47^a % in experiment [2] (50 mg L^−1); 49.40 ± 2.04^d % in experiment [2] (setting [4]). The “Protection against LDL oxidation, quercetin metabolites (statement)” value in experiment [3] (50 mg L^−1) is recorded as “best protection”. Also, in experiment [3], the “Pro-oxidant effect (statement)” value is given as “did not show any pro-oxidant effect”.
For `O=c1c(O)c(-c2ccc(O)c(O)c2)oc2cc(O)cc(O)c12` [Quercetin], the “Percent inhibition … AAPH induction” value in experiment [1] (0.0005 mg L^−1) was 13.41 ± 0.67^e %; in experiment [1] (0.001 mg L^−1), 28.18 ± 2.19^d %; in experiment [1] (0.005 mg L^−1), 23.17 ± 1.48^d %; in experiment [1] (0.01 mg L^−1), 16.71 ± 1.18^e %; in experiment [1] (0.5 mg L^−1) it was 46.78 ± 0.85^c %; in experiment [1] (1 mg L^−1) it was 66.41 ± 0.83^b %. For the same compound, the “Percent inhibition … AAPH induction” value in experiment [1] (5 mg L^−1) was 86.62 ± 2.00^a %; in experiment [1] (10 mg L^−1), 90.20 ± 0.63^a %; in experiment [1] (25 mg L^−1) it was 92.04 ± 0.51^a %; in experiment [1] (50 mg L^−1) it was 91.90 ± 0.69^a %; in experiment [1] (setting [4]), 85.06 ± 1.23^c %. The “Protection for AAPH induced LDL oxidation” value in experiment [1] (beyond 5 mg L^−1) is reported as “more than 80%”. Besides, the “Percent inhibition … Cu induction” value in experiment [2] (0.0005 mg L^−1) is 13.97 ± 2.56^d %; in experiment [2] (0.005 mg L^−1), 8.07 ± 3.33^de %; in experiment [2] (0.01 mg L^−1), 4.62 ± 1.03^e %; in experiment [2] (0.5 mg L^−1) it was 75.68 ± 1.31^c %; in experiment [2] (1 mg L^−1), 85.87 ± 1.55^b %. Also, the “Protection for Cu2+ induced LDL oxidation” value in experiment [2] (beyond 1 mg L^−1) is listed as “more than 80%”. Also, the “Pro-oxidant effect (statement)” value in experiment [3] is “did not show any pro-oxidant effect”.
For `O=c1c(O[C@@H]2O[C@H](CO)[C@H](O)[C@H](O)[C@H]2O)c(-c2ccc(O)c(O)c2)oc2cc(O)cc(O)c12` [Quercetin-3-O-galactoside], the “Percent inhibition … AAPH induction” value in experiment [1] (0.0005 mg L^−1) is reported as −29.51 ± 2.43^c %; in experiment [1] (0.001 mg L^−1) it was −64.01 ± 6.16^c %; in experiment [1] (0.005 mg L^−1), −35.63 ± 5.21^c %; in experiment [1] (0.01 mg L^−1) it was −34.82 ± 4.98^c %; in experiment [1] (0.5 mg L^−1) it was 37.82 ± 7.30^b %; in experiment [1] (1 mg L^−1), 49.08 ± 3.10^b %. The “Percent inhibition … AAPH induction” value in experiment [1] (5 mg L^−1) is given as 88.62 ± 2.58^a %; in experiment [1] (10 mg L^−1) it was 86.65 ± 1.82^a %; in experiment [1] (25 mg L^−1), 85.58 ± 2.24^a %; in experiment [1] (50 mg L^−1), 92.23 ± 1.87^a %; in experiment [1] (setting [4]), 141.68 ± 1.43^a %. Also, the “Percent inhibition … Cu induction” value in experiment [2] (0.0005 mg L^−1) is recorded as 6.39 ± 2.33^c %; in experiment [2] (0.001 mg L^−1), 4.88 ± 0.76^c %; in experiment [2] (0.005 mg L^−1), 4.64 ± 1.50^c %; in experiment [2] (0.01 mg L^−1) it was −6.51 ± 2.90^d %; in experiment [2] (0.5 mg L^−1), 6.20 ± 1.77^c %; in experiment [2] (1 mg L^−1), 27.61 ± 0.58^b %. Also, the “Percent inhibition … Cu induction” value in experiment [2] (5 mg L^−1) is given as 87.87 ± 0.32^a %; in experiment [2] (10 mg L^−1), 89.88 ± 0.50^a %; in experiment [2] (25 mg L^−1) it was 91.49 ± 0.88^a %; in experiment [2] (50 mg L^−1), 92.73 ± 0.56^a %; in experiment [2] (setting [4]), 105.34 ± 0.30^ab %. In experiment [3], the “Pro-oxidant effect (statement)” value is recorded as “did not show any pro-oxidant effect”. For the same compound, in experiment [3] (concentrations greater than 5 mg L^−1), the “LDL oxidation inhibition for both the induction systems” value is recorded as “more than 85%”.
